From the NIST ThermoML archive (doi:10.1021/je050416y)
Numbers after ± are expanded uncertainties.

Legend:
[1] = xn = mol fraction of the nth substance listed; details: 101 kPa, Liquid, x2 = 0; for mass density: Vibrating tube method
[2] = 101 kPa, Liquid; for mass density: Vibrating tube method

CCO [ethanol] + CC(C)CCO
[1]
Details | kinematic viscosity [m2/s] | mass density [kg/m3]
293.15 K | 1.52e-06 ± 7.2e-08 | 789.7 ± 1
298.15 K | 1.39e-06 ± 6.6e-08 | 785.3 ± 1
303.15 K | 1.23e-06 ± 5.9e-08 | 780.9 ± 1
308.15 K | 1.13e-06 ± 5.5e-08 | 776.5 ± 1
313.15 K | 1.02e-06 ± 5.1e-08 | 772.2 ± 1
318.15 K | 9.4e-07 ± 4.7e-08 | 767.9 ± 1
323.15 K | 8.28e-07 ± 4.2e-08 | 763.5 ± 1

CC(C)CCO [3-methylbutan-1-ol]
[2]
Details | kinematic viscosity [m2/s] | mass density [kg/m3]
293.15 K | 5e-06 ± 2.2e-07 | 808.3 ± 1
298.15 K | 4.35e-06 ± 1.9e-07 | 804.6 ± 1
303.15 K | 3.81e-06 ± 1.7e-07 | 800.8 ± 1
308.15 K | 3.33e-06 ± 1.5e-07 | 797.1 ± 1
313.15 K | 2.94e-06 ± 1.3e-07 | 793.2 ± 1
318.15 K | 2.59e-06 ± 1.2e-07 | 789.5 ± 1
323.15 K | 2.29e-06 ± 1e-07 | 785.7 ± 1

CCC(C)CO (stereo not drawn) [2-methyl-1-butanol]
[2]
Details | kinematic viscosity [m2/s] | mass density [kg/m3]
293.15 K | 6.11e-06 ± 2.5e-07 | 817.6 ± 1
298.15 K | 5.34e-06 ± 2.3e-07 | 814.1 ± 1
303.15 K | 4.69e-06 ± 2e-07 | 810.5 ± 1
308.15 K | 4.08e-06 ± 1.8e-07 | 807.1 ± 1
313.15 K | 3.54e-06 ± 1.6e-07 | 803.6 ± 1
318.15 K | 3.09e-06 ± 1.4e-07 | 800.1 ± 1
323.15 K | 2.72e-06 ± 1.2e-07 | 796.6 ± 1

CCO [ethanol] + CCC(C)CO
[1]
Details | kinematic viscosity [m2/s] | mass density [kg/m3]
293.15 K | 1.52e-06 ± 7.2e-08 | 789.7 ± 1
298.15 K | 1.39e-06 ± 6.6e-08 | 785.3 ± 1
303.15 K | 1.23e-06 ± 5.9e-08 | 780.9 ± 1
308.15 K | 1.13e-06 ± 5.5e-08 | 776.5 ± 1
313.15 K | 1.02e-06 ± 5.1e-08 | 772.2 ± 1
318.15 K | 9.4e-07 ± 4.7e-08 | 767.9 ± 1
323.15 K | 8.28e-07 ± 4.2e-08 | 763.5 ± 1

CCO [ethanol]
[2]
Details | kinematic viscosity [m2/s] | mass density [kg/m3]
293.15 K | 1.52e-06 ± 7.2e-08 | 789.7 ± 1
298.15 K | 1.39e-06 ± 6.6e-08 | 785.3 ± 1
303.15 K | 1.23e-06 ± 5.9e-08 | 780.9 ± 1
308.15 K | 1.13e-06 ± 5.5e-08 | 776.5 ± 1
313.15 K | 1.02e-06 ± 5.1e-08 | 772.2 ± 1
318.15 K | 9.4e-07 ± 4.7e-08 | 767.9 ± 1
323.15 K | 8.28e-07 ± 4.2e-08 | 763.5 ± 1

CCO [ethanol] + CCC(C)(C)O
[1]
Details | kinematic viscosity [m2/s] | mass density [kg/m3]
293.15 K | 1.52e-06 ± 7.2e-08 | 789.7 ± 1
298.15 K | 1.39e-06 ± 6.6e-08 | 785.3 ± 1
303.15 K | 1.23e-06 ± 5.9e-08 | 780.9 ± 1
308.15 K | 1.13e-06 ± 5.5e-08 | 776.5 ± 1
313.15 K | 1.02e-06 ± 5.1e-08 | 772.2 ± 1
318.15 K | 9.4e-07 ± 4.7e-08 | 767.9 ± 1
323.15 K | 8.28e-07 ± 4.2e-08 | 763.5 ± 1

CCC(C)(C)O [2-methylbutan-2-ol]
[2]
Details | kinematic viscosity [m2/s] | mass density [kg/m3]
293.15 K | 5.11e-06 ± 2.2e-07 | 813.9 ± 1
298.15 K | 4.47e-06 ± 2e-07 | 810.5 ± 1
303.15 K | 3.91e-06 ± 1.7e-07 | 807 ± 1
308.15 K | 3.39e-06 ± 1.5e-07 | 803.5 ± 1
313.15 K | 2.91e-06 ± 1.3e-07 | 800 ± 1
318.15 K | 2.52e-06 ± 1.1e-07 | 796.6 ± 1
323.15 K | 2.09e-06 ± 9.6e-08 | 793.3 ± 1
